Results taken from patent US8216822B2, “Bacterial host cell for the direct expression of peptides” (Unigene Laboratories, Inc., priority 2004, dated 2012).

B1: α2-macroglobulin: protease inhibitor (protein, UniProt P01023 24-1474, looked up)
Alpha-2-macroglobulin: SVSGKPQYMVLVPSLLHTETTEKGCVLLSYLNETVTVSASLESVRGNRSLFTDLEAENDVLHCVAFAVPKSSSNEEVMFLTVQVKGPTQEFKKRTTVMVKNEDSLVFVQTDKSIYKPGQTVKFRVVSMDENFHPLNELIPLVYIQDPKGNRIAQWQSFQLEGGLKQFSFPLSSEPFQGSYKVVVQKKSGGRTEHPFTVEEFVLPKFEVQVTVPKIITILEEEMNVSVCGLYTYGKPVPGHVTVSICRKYSDASDCHGEDSQAFCEKFSGQLNSHGCFYQQVKTKVFQLKRKEYEMKLHTEAQIQEEGTVVELTGRQSSEITRTITKLSFVKVDSHFRQGIPFFGQVRLVDGKGVPIPNKVIFIRGNEANYYSNATTDEHGLVQFSINTTNVMGTSLTVRVNYKDRSPCYGYQWVSEEHEEAHHTAYLVFSPSKSFVHLEPMSHELPCGHTQTVQAHYILNGGTLLGLKKLSFYYLIMAKGGIVRTGTHGLLVKQEDMKGHFSISIPVKSDIAPVARLLIYAVLPTGDVIGDSAKYDVENCLANKVDLSFSPSQSLPASHAHLRVTAAPQSVCALRAVDQSVLLMKPDAELSASSVYNLLPEKDLTGFPGPLNDQDNEDCINRHNVYINGITYTPVSSTNEKDMYSFLEDMGLKAFTNSKIRKPKMCPQLQQYEMHGPEGLRVGFYESDVMGRGHARLVHVEEPHTETVRKYFPETWIWDLVVVNSAGVAEVGVTVPDTITEWKAGAFCLSEDAGLGISSTASLRAFQPFFVELTMPYSVIRGEAFTLKATVLNYLPKCIRVSVQLEASPAFLAVPVEKEQAPHCICANGRQTVSWAVTPKSLGNVNFTVSAEALESQELCGTEVPSVPEHGRKDTVIKPLLVEPEGLEKETTFNSLLCPSGGEVSEELSLKLPPNVVEESARASVSVLGDILGSAMQNTQNLLQMPYGCGEQNMVLFAPNIYVLDYLNETQQLTPEIKSKAIGYLNTGYQRQLNYKHYDGSYSTFGERYGRNQGNTWLTAFVLKTFAQARAYIFIDEAHITQALIWLSQRQKDNGCFRSSGSLLNNAIKGGVEDEVTLSAYITIALLEIPLTVTHPVVRNALFCLESAWKTAQEGDHGSHVYTKALLAYAFALAGNQDKRKEVLKSLNEEAVKKDNSVHWERPQKPKAPVGHFYEPQAPSAEVEMTSYVLLAYLTAQPAPTSEDLTSATNIVKWITKQQNAQGGFSSTQDTVVALHALSKYGAATFTRTGKAAQVTIQSSGTFSSKFQVDNNNRLLLQQVSLPELPGEYSMKVTGEGCVYLQTSLKYNILPEKEEFPFALGVQTLPQTCDEPKAHTSFQISLSVSYTGSRSASNMAIVDVKMVSGFIPLKPTVKMLERSNHVSRTEVSSNHVLIYLDKVSNQTLSLFFTVLQDVPVRDLKPAIVKVYDYYETDEFAIAEYNAPCSKDLGNA

Legend:
[1] = test system: proteolytic degradation of sCTgly in conditioned fermentation medium; assay: Protease inhibitors tested for ability to reduce proteolytic degradation of sCTgly in conditioned medium; format: biochemical, E. coli; conditions: 30° C.
Method: Conditioned medium samples from both UGL165 (E. coli BLR transformed with pSCT 029) and UGL703 (E. coli BLR transformed with pSCT 038) Direct Expression fermentations were tested for loss of sCTgly following removal of cells and incubation of the medium spiked with sCTgly at 30° C. The concentration of sCTgly in conditioned fermentation medium was measured by CEX HPLC.

[2] = molecular target: T1, E. coli Protease III (zinc metalloprotease) in fermentation medium (Escherichia coli, UniProt P05458); assay: Divalent cation specificity of sCTgly degradation in fermentation medium (EDTA, MgCl2, ZnCl2); format: biochemical; conditions: 15 mM added to EDTA (50 mM) pre-treated medium, 30° C., 4 hrs
T1 construct: E. coli Protease III is a periplasmic/extracellular zinc metalloprotease; endogenous in cells; host or cells: E. coli BLR (UGL703 / UGL165), cell-free conditioned fermentation medium
T1 sequence (P05458 24-962): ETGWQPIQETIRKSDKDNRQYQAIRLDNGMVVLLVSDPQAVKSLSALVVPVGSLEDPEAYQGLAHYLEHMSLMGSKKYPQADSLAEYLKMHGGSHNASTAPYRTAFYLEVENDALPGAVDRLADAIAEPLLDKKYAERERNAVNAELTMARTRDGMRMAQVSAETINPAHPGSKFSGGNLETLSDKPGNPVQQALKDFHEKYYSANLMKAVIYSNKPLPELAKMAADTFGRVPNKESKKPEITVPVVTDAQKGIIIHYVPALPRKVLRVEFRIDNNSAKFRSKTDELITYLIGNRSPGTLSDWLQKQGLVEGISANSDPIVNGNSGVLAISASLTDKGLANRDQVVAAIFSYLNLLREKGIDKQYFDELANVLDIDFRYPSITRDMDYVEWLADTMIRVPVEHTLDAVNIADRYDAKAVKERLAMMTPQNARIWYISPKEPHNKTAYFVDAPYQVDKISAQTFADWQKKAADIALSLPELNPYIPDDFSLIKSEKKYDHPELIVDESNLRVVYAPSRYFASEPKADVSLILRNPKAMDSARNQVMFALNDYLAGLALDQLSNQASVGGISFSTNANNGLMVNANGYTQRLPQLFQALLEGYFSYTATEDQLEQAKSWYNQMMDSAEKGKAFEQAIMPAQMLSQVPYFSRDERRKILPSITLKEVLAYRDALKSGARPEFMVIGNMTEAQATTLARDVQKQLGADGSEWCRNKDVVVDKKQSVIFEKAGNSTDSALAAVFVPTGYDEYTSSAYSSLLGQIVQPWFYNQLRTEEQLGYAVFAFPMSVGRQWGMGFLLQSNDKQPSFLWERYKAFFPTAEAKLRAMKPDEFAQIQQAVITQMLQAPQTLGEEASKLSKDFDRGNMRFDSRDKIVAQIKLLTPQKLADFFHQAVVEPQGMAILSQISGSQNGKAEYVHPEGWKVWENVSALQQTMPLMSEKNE

Row | Molecule | ability to reduce or eliminate proteolytic degradation of sCTgly [1] | reactivation of proteolytic activity by divalent cation [2]
1 | CC(C)C[C@H](NC(=O)[C@@H](O)[C@H](N)Cc1ccccc1)C(=O)O [Bestatin] | Only EDTA was able to reduce the proteolytic degradation of sCTgly | 
2 | [Cl-].[Cl-].[Mg+2] [MgCl2] |  | magnesium was not
3 | [Cl-].[Cl-].[Zn+2] [ZnCl2] |  | zinc was effective
4 | B1 | Only EDTA was able to reduce the proteolytic degradation of sCTgly | 
